Measured values reported in patent US20260002950A1, “Uses of 5-Aminovaleric Acid Betaine and Compositions Related Thereto” (Emory University, priority 2021, published 2026).
Entries after “also recorded” stand apart in the source; their conditions may differ. Blank lines part the entries; values can stand above or below the molecule they belong to.

How the values were obtained:
carnitine shuttle = experiment: Stable isotope tracer study of palmitate metabolism in cultured cells; format: cell-based
Protocol: (§1) Dose-response experiments with VB were performed in vitro and in vivo to examine metabolic effects of VB. The mitochondrial carnitine shuttle is the top metabolic pathway associated with VB in human HepG2 cells. […] The carnitine shuttle uses carnitine for transport of long-chain fatty acyl chains into mitochondria for fatty acid β-oxidation. […] The effect of VB on inhibition of palmitate-dependent oxygen consumption rate is confirmed by stable isotope tracer studies of palmitate metabolism, which show VB inhibits formation of ^13C16 palmitoylcarnitine from ^13C16 palmitate and decreases the formation of ^13C2 acetyl-CoA (FIG. 2D). […] Thus, VB inhibits mitochondrial long chain fatty acid metabolism through effects on carnitine and operation of the carnitine shuttle.

[1] = Concentrations of VB in tissues and circulation of conventional mice (mass spectrometry); format: in vivo; settings: endogenous
Text: To identify microbial metabolites that could impact mitochondrial function, the metabolome of liver and liver mitochondria was examined in mice with an intact microbiome (“conventionalized” mice in which germ-free mice were reconstituted with microbiome) compared to liver and liver mitochondria from germ-free mice (FIG. 1A). The top discriminatory metabolite has an accurate mass m/z of 160.1332 by ultra-high-resolution mass spectrometry, corresponding to predicted elemental composition C8H18NO2. This metabolite is found in liver and other tissues, portal and peripheral circulation, and cecum of conventional but not germ-free mice (FIG. 1B). Authentic standard co-elution and MS/MS experiments show the identity of 160.1332 m/z to be delta-valerobetaine (VB) (FIG. 1C). Concurrent analyses of propionylcholine and valine betaine, similar molecules with identical elemental compositions, conclusively excluded these structures. VB was not present in the mouse diet and was not detectable in other samples collected from GF mice. […] Concentrations were 9-26 μM in the portal vein, with higher concentrations in the liver (75-190 μmol/kg wet weight) and lower concentrations in the peripheral plasma (2-10 μM) indicating tissue accumulation.

human HepG2 cells = experiment: Cell content of carnitine in HepG2 cells, VB dose-response; format: cell-based; settings: VB at 10 μM, vs control cells
Protocol: as §1

HepG2 cells = experiment: Palmitate-dependent mitochondrial O2 consumption rate in HepG2 cells; format: cell-based, human
Protocol: […] Effect of VB is most pronounced in the spare capacity measured after addition of the uncoupler FCCP.
as §1

mice [2] = experiment: VB treatment of mice, daily intraperitoneal injection for 1 week: carnitine and metabolite profiles; format: in vivo
Protocol: Mice of each sex were given daily intraperitoneal injection with saline (n=5), VB at 10 mg/kg (n=3) or VB at 100 mg/kg (n=8) for 1 week. Kruskal-Wallis test with Dunn's multiple comparisons test to identify pairwise differences in GraphPad Prism 6.0.
(§2) As observed in cells, the carnitine shuttle is the top metabolic pathway associated with VB-treatment in mice. VB treatment decreases circulating (FIG. 2A), hepatic (FIG. 2B), heart, and brain carnitine. Furthermore, VB treatment alters circulating and systemic acylcarnitine and acyl-CoA profiles. In whole tissue, VB increases hepatic and cardiac palmitoyl-CoA and decreases other short, medium, and long-chain acylcarnitines and CoAs under fasted conditions. In mitochondria, VB decreases the abundance of long-chain fatty acyl-CoAs and carnitines, consistent with a decrease in long-chain fatty acid β oxidation. VB also decreases circulating and hepatic β-hydroxybutyrate, a product of mitochondrial β-fatty acid oxidation.

mice [3] = experiment: VB treatment of mice for 3 days ± fasting: hepatic lipid accumulation; format: in vivo
Protocol: Mice of each sex were given daily intraperitoneal injection with saline (n=5) or VB at 100 mg/kg (n=5) for 3 days±fasting.
as §2

conventional mice = experiment: 8-week VB treatment of conventional mice on Western or control diet: adiposity; format: in vivo
Text: (n=5 per group, one-tailed t-test).
The relative increases are most pronounced in VAT, where fat mass in VB-treated mice on a Western diet was increased 80% in male mice and 60% in female mice compared to Western diet alone. […] The long-term consequences of VB inhibition of mitochondrial β-oxidation of fatty acids therefore include effects on body composition in mice receiving Western diet, with specific and pronounced effects on visceral adipose tissue mass.
(§3) VB effects in fasting are particularly intriguing as a mechanism causing obesity because decreasing mitochondrial β-oxidation of lipids mobilized from adipose tissue during fasting could cause a long-term increase in fat deposition. Therefore, experiments were performed to determine whether long-term VB treatment could increase weight gain and adiposity in mice. This was tested this in both GF and conventional mice, with or without a high-fat/sugar WD. Backhead et al. report a resistance to diet-induced obesity in germ-free mice. PNSA, 104 (3), 2007. […] Furthermore, VB treatment exacerbated the development of hepatic steatosis in these mice (FIG. 4E). Similarly, VB increased adipose tissue fat mass (VAT, SubQ, BAT) in conventional mice after 8 weeks with the WD. The relative increases were most pronounced in white adipose compartments (VAT, SubQ) where fat mass in VB treated GF and conventional mice on a WD was increased over 80% compared to WD alone.
(§4) Although WD-fed mice gained more weight than control fed mice, no differences in circulating VB were observed between WD or control-diet-fed conventional mice. These effects were not observed in GF or conventional mice fed the control diet.

GF mice = experiment: 6-week VB treatment of germ-free (GF) mice on Western or control diet; format: in vivo
Protocol: FIG. 4A illustrates experiments on long-term VB treatment in GF mice. Male GF mice were administered PBS or VB in conjunction with a control diet (CD) or WD for 6 weeks with body weight recorded as percentage weight gain (two-way repeat measures ANOVA with multiple comparisons per day.
as §3, §4

PPAR-response element = experiment: PPAR-response element-linked luciferase activity; format: cell-based
Text: An alternative interpretation of VB activity involves an adaptive response termed mitohormesis, a process by which a minor impairment increases gene expression of mitochondrial systems which improve metabolic function of mitochondria. […] With this interpretation, VB-induced lipid accumulation could drive activity of SIRT1, PGC-1a and PPAR-a pathways which control carnitine homeostasis, mitochondrial bioenergetics, and lipid metabolism. […] Thus, VB may function through a mitohormesis response mechanism and in conjunction with diet and aging, contribute to age dependent changes in adiposity.

mouse cardiomyocytes = settings: cited from earlier work
[4] = target: T1, γ-butyrobetaine hydroxylase (Homo sapiens, UniProt O75936); settings: cited from earlier work
T1 sequence (O75936 1-387): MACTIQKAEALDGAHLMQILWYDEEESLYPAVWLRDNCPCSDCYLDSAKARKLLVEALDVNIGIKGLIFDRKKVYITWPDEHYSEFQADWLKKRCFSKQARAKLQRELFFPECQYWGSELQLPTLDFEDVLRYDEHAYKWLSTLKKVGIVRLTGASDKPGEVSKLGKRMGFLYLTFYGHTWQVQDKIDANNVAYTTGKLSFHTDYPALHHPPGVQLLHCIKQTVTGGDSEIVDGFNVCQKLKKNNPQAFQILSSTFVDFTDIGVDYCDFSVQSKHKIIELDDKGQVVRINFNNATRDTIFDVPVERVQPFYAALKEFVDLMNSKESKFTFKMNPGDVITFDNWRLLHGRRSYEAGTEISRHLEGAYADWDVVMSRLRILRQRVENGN

mice [5] = settings: cited from earlier work

SMILES: C[N+](C)(C)CC(O)CC(=O)[O-] (centres unmarked) [carnitine, reference compound]
Rescue of VB effect on cellular carnitine and palmitoylcarnitine formation (carnitine shuttle; addition of carnitine to VB-treated cells): restores cellular carnitine and formation of palmitoylcarnitine

Concentration of VB in the cecum [1]: millimolar range
Concentration of VB in the liver [1]: 75-190 μmol/kg wet weight
Concentration of VB in the peripheral plasma [1]: 2 to 10 µM
Concentration of VB in the portal vein [1]: 9 to 26 µM
Concentration of VB in the colon ([1]; relative to cecum): somewhat lower concentrations
PPAR-response element-linked luciferase activity (PPAR-response element): dose-dependent increase
SMILES: C[N+](C)(C)CCCCC(=O)[O-] [VB, 5-(trimethylammonio) pentanoate]
Cell content of carnitine (human HepG2 cells): decreased to half that of control cells
Palmitate-dependent mitochondrial oxygen respiration (O2 consumption rate) (HepG2 cells; HepG2, 12 h without glucose, glutamine and pyruvate (mimicking fasting), VB 10 or 50 μM): inhibited; also recorded: dose-dependent decrease
Basal, ADP-linked O2 consumption rate, spare capacity, non-mitochondrial respiration (HepG2 cells; glucose, glutamine and pyruvate present at high concentration in culture media): little decrease
Formation of 13C16 palmitoylcarnitine from 13C16 palmitate (carnitine shuttle; cultured cells): inhibits
Formation of 13C2 acetyl-CoA from labeled palmitate (carnitine shuttle; cultured cells, n=3): decreases
Circulating and hepatic β-hydroxybutyrate (mice [2]): decreases
Circulating carnitine (mice [2]; VB 10 or 100 mg/kg i.p. daily, 1 week): decreases
Brain carnitine (mice [2]; VB treatment): decreases
Heart carnitine (mice [2]; VB treatment): decreases
Hepatic carnitine (mice [2]; VB treatment): decreases
Triacylglycerol and diacylglycerol species in liver, heart and brain (mice [2]; lipid profiling): increases
Abundance of long-chain fatty acyl-CoAs and carnitines in mitochondria (mice [2]; mitochondria): decreases
Liver triglycerides (hepatic steatosis) (mice [3]; male and female mice, VB 100 mg/kg i.p. 3 days, fasted): exacerbates hepatic steatosis; also recorded: increase
Liver lipid deposits, Oil Red O staining (mice [3]; mice, especially under fasted conditions): increases lipid deposits
Hepatic and cardiac palmitoyl-CoA (mice [3]; mice, whole tissue, fasted conditions): increases
Weight of brown adipose tissue (BAT) (conventional mice; 8 weeks): increased by VB in a diet dependent manner after 8-week VB treatment in males but not females; also recorded: increases brown adipose tissue (BAT) but in a less consistent manner
Weight of subcutaneous white adipose tissue (WAT) (conventional mice; Western diet, 8 weeks): increased by VB in a diet-dependent manner; also recorded: substantial increases
Weight of visceral adipose tissue (VAT) (conventional mice; Western diet, 8 weeks): increased by VB in a diet dependent manner; also recorded: substantial increases
Increase of fat mass in white adipose compartments (VAT, SubQ) vs WD alone (conventional mice; conventional mice on WD): over 80%
Adipose tissue fat mass (VAT, SubQ, BAT) (conventional mice; conventional mice, WD, 8 weeks): increased
Severity of hepatic steatosis (conventional mice; conventional mice, Western diet, 8 weeks): Trends for increase
Total body mass (conventional mice; conventional mice, Western diet, after 8 weeks, not p<0.05): Trends for increase
Effects on adiposity, steatosis and body mass on control diet (conventional mice; conventional mice, control diet): not observed
Increase of visceral adipose tissue (VAT) fat mass vs Western diet alone (conventional mice; female mice, Western diet, 8 weeks): 60%
Increase of visceral adipose tissue (VAT) fat mass vs Western diet alone (conventional mice; male mice, Western diet, 8 weeks): 80%
Carnitine concentrations after parenteral VB dosing (GF mice; GF mice): equivalent to conventional mice
Increase of fat mass in white adipose compartments (VAT, SubQ) vs WD alone (GF mice; GF mice on WD): over 80%
Adipose tissue fat mass in VAT, SubQ and BAT compartments vs WD alone (GF mice; GF mice, WD, six weeks): substantial increases
Weight gain (GF mice; GF mice, WD, six weeks): increased weight gain
Development of hepatic steatosis (GF mice; GF mice, WD, six weeks, liver H&E scoring): exacerbated
Effects on adiposity, steatosis and body mass on control diet (GF mice; GF mice, control diet): not observed
β-oxidation of fatty acids (mouse cardiomyocytes): decreases
γ-butyrobetaine hydroxylase activity [4]: inhibits
Fatty liver (mice [5]): exacerbates
